These results are taken from ChEMBL document CHEMBL1201862, “PubChem BioAssay data set” (2004).

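Growth conditions: 96-well plates. Treatment: test compound, 48 hours, 5 concentrations. Analysis: linear interpolation between bracketing concentrations; unreached endpoints set to highest concentration. Here, GI50 denotes the concentration required for 50% inhibition of growth.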 Calls of active or inactive are those of the source. Rule as the data show it: active = GI50 up to about 1.1 µM and inactive = higher. Where a SMILES comes first, the peptide text is derived from it. Square brackets hold non-standard residues; d marks the D form. Peptide text beside a SMILES is read from it.

Holding throughout (assay): NCI-60 cell line screen, 48 h
Assay [1] deals with DMS-273.
Assay [2] concerns NCI/ADR-RES.
The subject of assay [3] is HOP-92.
Assay [4] deals with HOP-62.
The subject of assay [5] is OVCAR-3.
Assay [6] has as its system SK-MEL-2.
Assay [7] has as its system CCRF-CEM.
Assay [8] concerns SF-295.
Assay [9] has as its system Malme-3M.
The subject of assay [10] is IGROV-1.
Assay [11] relates to SK-MEL-28.
Assay [12] relates to HCT-116.
Assay [13] concerns SN12C.
Assay [14] deals with NCI-H460.
The subject of assay [15] is SK-MEL-5.
The test system of assay [16] is M19-MEL.

On to `CCS(=O)(=O)Nc1ccc(Nc2c3ccccc3nc3ccccc23)c(OC)c1`, for which the GI50 was 0.0324 µM (active) in assay [1]; 5 µM (inactive) in [2]; 0.697 µM (active) in [3]; 0.067 µM (active) in [4]; 2.03 µM (inactive) in assay [5]; 5.37 µM (inactive) in [6]. For the same compound, the GI50 in assay [7] was 0.0485 µM (active); in [8] it was 0.13 µM (active); in assay [9], 0.515 µM (active); in [10] it was 7.94 µM (inactive); in assay [11] it was 3.03 µM (inactive); in assay [12], 1.19 µM (inactive). Further, the GI50 in assay [13] was 0.166 µM (active); in [14], < 0.0114 µM (active); in assay [15], 0.796 µM (active); in [16], 1.64 µM (inactive).

As to `CN(C)c1cccc(OC(=O)NCCCl)c1`, the GI50 in assay [1] was > 100 µM (inactive); in [2], > 100 µM (inactive); in assay [3], 65.3 µM (inactive); in assay [4], > 100 µM (inactive); in [5], > 100 µM (inactive); in assay [6], > 100 µM (inactive). Further, the GI50 is 68.2 µM (inactive) in assay [7]; > 100 µM (inactive) in assay [8]; > 100 µM (inactive) in [10]; > 100 µM (inactive) in assay [11]; > 100 µM (inactive) in assay [12]; > 100 µM (inactive) in assay [13]. The GI50 in assay [14], in [15] and in assay [16] was > 100 µM (inactive) in each case.

As to `O=C(CCN1CCOCC1)C(=Cc1ccccc1)C(=O)CCN1CCOCC1`, the GI50 in assay [1] was 8.65 µM (inactive); in assay [2] it was 2.46 µM (inactive); in [3], 2.11 µM (inactive); in assay [4], 21.2 µM (inactive); in assay [5], 3.97 µM (inactive); in [6], 8.34 µM (inactive). Also, the GI50 in assay [7] was 0.796 µM (active); in assay [8], 15.6 µM (inactive); in [9], 2.45 µM (inactive); in [10] it was 6.78 µM (inactive); in assay [11], 2.38 µM (inactive); in assay [12], 2.29 µM (inactive). Also, the GI50 was 2.96 µM (inactive) in assay [13], 12.8 µM (inactive) in [14], 7.08 µM (inactive) in [15] and 2.83 µM (inactive) in assay [16].

For `CC(C)C[C@H](NC(=O)[C@H](CC(C)C)NC(=O)[C@@H](Cc1c[nH]c2ccccc12)NC(=O)[C@H](Cc1ccccc1)NC(=O)[C@@H](Cc1c[nH]c2ccccc12)NC(=O)[C@H](CCC(N)=O)NC(=O)[C@@H](CCC(N)=O)NC(=O)[C@@H]1CCCN1C(=O)[C@@H](CCCCN)NC(=O)[C@H]1CCCN1C(=O)[C@H](N)CCCN=C(N)N)C(N)=O` (H-[dR][dP][dK]P[dQ]Q[dW]F[dW]LL-NH2), the GI50 in assay [1] is > 100 µM (inactive); in assay [2], > 100 µM (inactive); in assay [3] it was > 100 µM (inactive); in [4], > 100 µM (inactive); in assay [5], > 86.3 µM (inactive); in [6], > 100 µM (inactive). Further, the GI50 in assay [7] is > 100 µM (inactive); in assay [8] it was 63.5 µM (inactive); in assay [9] it was > 31.6 µM (inactive); in assay [10], > 100 µM (inactive); in assay [11], > 100 µM (inactive); in assay [12] it was > 100 µM (inactive). For the same compound, the GI50 in [13] was > 100 µM (inactive); in [14], 64.7 µM (inactive); in [15], > 100 µM (inactive); in assay [16], > 100 µM (inactive).

As for `CC1NC(=O)CNC(=O)CNC(=O)C(Cc2ccc(O)cc2)NC(=O)C(C(C)C)NC(=O)C(C)NC1=O` (stereo not drawn) (cyclo(GGAAVY); configuration not given here), the GI50 was > 100 µM (inactive) in assay [1]; > 100 µM (inactive) in [2]; 50.8 µM (inactive) in [3]; > 100 µM (inactive) in assay [4]; > 100 µM (inactive) in [5]; > 100 µM (inactive) in assay [6]. The GI50 in assay [7], in [8], in assay [10], in assay [11], in [12] and in [13] was > 100 µM (inactive) throughout. Besides, the GI50 in assay [14], in assay [15] and in assay [16] was > 100 µM (inactive) each time.
